The target in this assay is Mitochondrial complex I; NADH oxidoreductase (Bos taurus, UniProt P25708+P52505). The assay is described as follows: Inhibition of bovine mitochondrial NADH-ubiquinone oxidoreductase by NADH oxidase assay. Format: protein-complex assay.
Sequence of Mitochondrial complex I; NADH oxidoreductase (P25708 21-464 limits assumed, other chains not shown): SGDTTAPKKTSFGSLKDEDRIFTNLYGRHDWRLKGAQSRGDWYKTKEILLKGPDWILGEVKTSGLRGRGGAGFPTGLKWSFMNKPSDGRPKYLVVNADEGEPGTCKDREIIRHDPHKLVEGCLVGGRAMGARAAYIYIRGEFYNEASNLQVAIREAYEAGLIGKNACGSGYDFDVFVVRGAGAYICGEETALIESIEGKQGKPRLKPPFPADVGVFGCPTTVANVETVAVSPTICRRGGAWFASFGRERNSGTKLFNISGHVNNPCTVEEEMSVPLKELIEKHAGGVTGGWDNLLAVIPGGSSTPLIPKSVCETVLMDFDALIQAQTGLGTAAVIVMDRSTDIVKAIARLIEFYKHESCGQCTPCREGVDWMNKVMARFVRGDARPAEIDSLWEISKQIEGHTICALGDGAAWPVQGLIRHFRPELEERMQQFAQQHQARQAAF

On to `CCCCCCCCCC[C@@H](O)[C@H]1CC[C@H]([C@H]2CC[C@H]([C@@H](C)O)O2)O1`, for which it took 280 nM to reach half-maximal inhibition (IC50).
As to `CCCCCCCCCC[C@@H](O)[C@H]1CC[C@H]([C@H]2CC[C@H]([C@H](O)CC)O2)O1`, the IC50 stood at 45 nM.
As for `CCCCCCCCCC[C@@H](O)[C@H]1CC[C@H]([C@H]2CC[C@H]([C@H](O)CCCC(CCC)CCC)O2)O1`, the IC50 is 27 nM.
Under `CCCC(CCC)CCC[C@@H](O)[C@H]1CC[C@H]([C@H]2CC[C@H]([C@H](O)CCCC(CCC)CCC)O2)O1` stands 1500 nM; under `CCCCCCCCCC[C@@H](O)[C@H]1CC[C@H]([C@H]2CC[C@H]([C@H](O)CCCCCC)O2)O1`, 3.2 nM; under `CCCCCCCCCCCCCC[C@@H](O)[C@H]1CC[C@H]([C@H]2CC[C@H]([C@H](O)CCCCCC)O2)O1`, 34 nM.
Under `CCCCC(CC)CCC[C@@H](O)[C@H]1CC[C@H]([C@H]2CC[C@H]([C@H](O)CCCC(CC)CCCC)O2)O1` (some centres not stated) stands 870 nM; under `CCCCCCCCCCCC[C@@H](O)[C@H]1CC[C@H]([C@H]2CC[C@H]([C@H](O)CCCCCCCC)O2)O1`, 7.5 nM; under `CCCCCCCCCCCCCC[C@@H](O)[C@H]1CC[C@H]([C@H]2CC[C@H]([C@@H](C)O)O2)O1`, 410 nM.
Under `CCCCCCCC[C@@H](O)[C@H]1CC[C@H]([C@H]2CC[C@H]([C@H](O)CCCCCCCC)O2)O1` stands 45 nM.
The compound `CCCCCCCCCCCC[C@@H](O)[C@H]1CC[C@H]([C@H]2CC[C@H]([C@H](O)CCCCCCCCCCCC)O2)O1` gave a concentration for half-maximal inhibition (IC50) of 9 nM.
Regarding `CCCCCCCCCC[C@@H](O)[C@H]1CC[C@H]([C@H]2CC[C@H]([C@H](O)CCCCCCCCCC)O2)O1` [dleta-lac-Acetogenin], the IC50 was found to be 1.7 nM.

As usually defined, the IC50 is the point on the concentration scale where inhibition reaches its midpoint.

These data come from ChEMBL document CHEMBL1138897, “Function of the alkyl side chains of Deltalac-acetogenins in the inhibitory effect on mitochondrial complex I (NADH-ubiquinone oxidoreductase)” (Bioorg Med Chem Lett, 2006).
